Experiment: xn = mol fraction of the nth substance listed

CCCCCC(=O)[O-].C[NH+](C)Cc1ccccc1 + CN(C)C=O
viscosity [mPa·s], 101 kPa
Settings	293.15 K	298.15 K	303.15 K	308.15 K	313.15 K	318.15 K	323.15 K	328.15 K
x1 = 0.005406	0.956	0.916	0.879	0.847	0.818	0.792	0.769	0.748
x1 = 0.008974	0.969	0.927	0.889	0.855	0.825	0.798	0.774	0.752
x1 = 0.01235	0.978	0.934	0.895	0.861	0.83	0.803	0.778	0.755
x1 = 0.01781	1.002	0.955	0.913	0.877	0.844	0.815	0.789	0.765
x1 = 0.01976	1	0.954	0.913	0.877	0.844	0.816	0.79	0.766
x2 = 0.9681	1.042	0.99	0.945	0.905	0.869	0.837	0.809	0.784
x2 = 0.9717	1.03	0.98	0.935	0.896	0.862	0.831	0.803	0.778
x2 = 0.9757	1.02	0.971	0.928	0.89	0.856	0.826	0.799	0.774

CC[N+](CC)=C(N(C)C)N(C)C.O=S(=O)([N-]S(=O)(=O)C(F)(F)F)C(F)(F)F + CO
101 kPa
Settings	electrical conductivity, 293.2 K [S/m]	viscosity, 293.15 K [mPa·s]	viscosity, 298.15 K [mPa·s]	viscosity, 303.15 K [mPa·s]	viscosity, 308.15 K [mPa·s]	viscosity, 313.15 K [mPa·s]	viscosity, 318.15 K [mPa·s]	viscosity, 323.15 K [mPa·s]
x1 = 0.0003107	0.0546	0.59	0.556	0.528	0.493	0.462	0.442	0.42
x1 = 0.0006532	0.102	0.597	0.56	0.532	0.497	0.466	0.445	0.423
x1 = 0.00159	0.205	0.604	0.568	0.538	0.503	0.471	0.45	0.427
x1 = 0.003264	0.334	0.619	0.58	0.55	0.514	0.481	0.459	0.435
x1 = 0.006358	0.564	0.646	0.605	0.573	0.535	0.5	0.477	0.452
x1 = 0.01246	0.89	0.702	0.656	0.617	0.576	0.538	0.514	0.488
x1 = 0.01888	1.17	0.766	0.715	0.672	0.627	0.585	0.554	0.525
x1 = 0.02468	1.31	0.822	0.767	0.715	0.667	0.622	0.59	0.558
x1 = 0.03071	1.47	0.893	0.828	0.774	0.718	0.67	0.631	0.596
x1 = 0.03685	1.59	0.963	0.891	0.827	0.77	0.719	0.675	0.636
x1 = 0.04275	1.67	1.048	0.966	0.894	0.83	0.773	0.724	0.68
x1 = 0.05163	1.78	1.152	1.06	0.979	0.907	0.844	0.788	0.739
x1 = 0.05988	1.83	1.267	1.162	1.07	0.989	0.918	0.856	0.801
x1 = 0.07419	1.89	1.484	1.356	1.244	1.146	1.06	0.985	0.919
x1 = 0.08753	1.9	1.71	1.56	1.429	1.313	1.21	1.119	1.04

CC[n+]1ccn(CCOC)c1.O=S(=O)([N-]S(=O)(=O)C(F)(F)F)C(F)(F)F + CO
100 kPa
Settings	viscosity [mPa·s]
288.15 K, x1 = 0.2999	7.19
288.15 K, x1 = 0.5	15.9
288.15 K, x1 = 0.5984	22.75
288.15 K, x1 = 0.7934	37.29
293.15 K, x1 = 1	43.63
298.15 K, x1 = 0.1	1.627
298.15 K, x1 = 0.2999	5.44
303.15 K, x1 = 0.2999	4.8
303.15 K, x1 = 0.5	9.83
303.15 K, x1 = 1	29.33
308.15 K, x1 = 0.1997	2.658
308.15 K, x1 = 0.2999	4.263
308.15 K, x1 = 0.3966	6.33
308.15 K, x1 = 0.5984	12
308.15 K, x1 = 0.7934	18.08
313.15 K, x1 = 0.5984	10.42
313.15 K, x1 = 0.6953	13.27
313.15 K, x1 = 0.7934	15.68
318.15 K, x1 = 0.2999	3.449

C[N+](C)(C)CCC[n+]1ccccc1.N#C[N-]C#N.N#C[N-]C#N + CO
100 kPa
Settings	viscosity [mPa·s]
293.15 K, x1 = 0.3999	69.9
293.15 K, x1 = 0.8995	950
303.15 K, x1 = 0.5002	78.6
303.15 K, x1 = 0.7003	184
313.15 K, x1 = 0.0999	3.18
313.15 K, x1 = 0.3999	31.9
313.15 K, x1 = 0.5002	53.3
313.15 K, x1 = 0.7998	145
313.15 K, x1 = 1	386
323.15 K, x1 = 0.3002	13.6
323.15 K, x1 = 0.3999	23.6
323.15 K, x1 = 0.5002	38.3
323.15 K, x1 = 0.6001	54.1
333.15 K, x1 = 0.0999	2.54
333.15 K, x1 = 0.2001	6.12
333.15 K, x1 = 0.3999	18.5
333.15 K, x1 = 0.6001	38.5

CC(=O)[O-].CCCCCCCCCCCCCC[P+](CCCCCC)(CCCCCC)CCCCCC + COCCOCCOCCOCCOC
100 kPa
Settings	viscosity [mPa·s]
278.15 K, x2 = 0.207	651
278.15 K, x2 = 0.499	176
283.15 K, x2 = 0.207	462
288.15 K, x2 = 0.103	549
288.15 K, x2 = 0.4	145
298.15 K, x2 = 0.103	287
298.15 K, x2 = 0.4	88
313.15 K, x2 = 0.103	130

NC(=O)C(F)(F)F + C[P+](c1ccccc1)(c1ccccc1)c1ccccc1.[Br-]
288.15 K, 101.3 kPa, x1 = 0.889
Settings	electrical conductivity [S/m]	viscosity [mPa·s]
–	0.035	410

CCCCCC[n+]1ccn(C)c1.[Cl-] + O
Settings	electrical conductivity [S/m]	viscosity [mPa·s]
278.15 K, 100 kPa, x1 = 8.613e-05	–	1.531
278.15 K, 100 kPa, x1 = 0.0001839	–	1.539
278.15 K, 100 kPa, x1 = 0.0003576	–	1.551
278.15 K, 100 kPa, x1 = 0.0005405	–	1.562
278.15 K, 100 kPa, x1 = 0.000744	–	1.573
278.15 K, 100 kPa, x1 = 0.0009399	–	1.585
278.15 K, 100 kPa, x1 = 0.001103	–	1.596
278.15 K, 100 kPa, x1 = 0.001379	–	1.613
278.15 K, 100 kPa, x1 = 0.001677	–	1.641
283.15 K, 100 kPa, x1 = 8.613e-05	–	1.314
283.15 K, 100 kPa, x1 = 0.0001839	–	1.32
283.15 K, 100 kPa, x1 = 0.0003576	–	1.329
283.15 K, 100 kPa, x1 = 0.0005405	–	1.337
283.15 K, 100 kPa, x1 = 0.000744	–	1.348
283.15 K, 100 kPa, x1 = 0.0009399	–	1.358
283.15 K, 100 kPa, x1 = 0.001103	–	1.369
283.15 K, 100 kPa, x1 = 0.001379	–	1.381
283.15 K, 100 kPa, x1 = 0.001677	–	1.401
288.15 K, 100 kPa, x1 = 8.613e-05	–	1.145
288.15 K, 100 kPa, x1 = 0.0001839	–	1.15
288.15 K, 100 kPa, x1 = 0.0003576	–	1.158
288.15 K, 100 kPa, x1 = 0.0005405	–	1.166
288.15 K, 100 kPa, x1 = 0.000744	–	1.174
288.15 K, 100 kPa, x1 = 0.0009399	–	1.181
288.15 K, 100 kPa, x1 = 0.001103	–	1.188
288.15 K, 100 kPa, x1 = 0.001379	–	1.2
288.15 K, 100 kPa, x1 = 0.001677	–	1.219
293.15 K, 100 kPa, x1 = 8.613e-05	–	1.008
293.15 K, 100 kPa, x1 = 0.0001839	–	1.013
293.15 K, 100 kPa, x1 = 0.0003576	–	1.019
293.15 K, 100 kPa, x1 = 0.0005405	–	1.025
293.15 K, 100 kPa, x1 = 0.000744	–	1.033
293.15 K, 100 kPa, x1 = 0.0009399	–	1.039
293.15 K, 100 kPa, x1 = 0.001103	–	1.044
293.15 K, 100 kPa, x1 = 0.001379	–	1.054
293.15 K, 100 kPa, x1 = 0.001677	–	1.069
298.15 K, 100 kPa, x1 = 0.0001839	–	0.899
298.15 K, 100 kPa, x1 = 0.0003576	–	0.905
298.15 K, 100 kPa, x1 = 0.0005405	–	0.911
298.15 K, 100 kPa, x1 = 0.000744	–	0.917
298.15 K, 100 kPa, x1 = 0.0009399	–	0.922
298.15 K, 100 kPa, x1 = 0.001103	–	0.928
298.15 K, 100 kPa, x1 = 0.001379	–	0.936
298.15 K, 100 kPa, x1 = 0.001677	–	0.949
298.15 K, 101.3 kPa, x1 = 4.23e-06	0.00276	–
298.15 K, 101.3 kPa, x1 = 7.11e-06	0.00451	–
298.15 K, 101.3 kPa, x1 = 1.01e-05	0.00631	–
298.15 K, 101.3 kPa, x1 = 1.293e-05	0.008	–
298.15 K, 101.3 kPa, x1 = 1.551e-05	0.00953	–
298.15 K, 101.3 kPa, x1 = 1.836e-05	0.01121	–
298.15 K, 101.3 kPa, x1 = 2.116e-05	0.0129	–
298.15 K, 101.3 kPa, x1 = 2.393e-05	0.0145	–
298.15 K, 101.3 kPa, x1 = 2.652e-05	0.016	–
298.15 K, 101.3 kPa, x1 = 2.919e-05	0.0175	–
303.15 K, 100 kPa, x1 = 8.613e-05	–	0.802
303.15 K, 100 kPa, x1 = 0.0001839	–	0.805
303.15 K, 100 kPa, x1 = 0.0003576	–	0.81
303.15 K, 100 kPa, x1 = 0.0005405	–	0.815
303.15 K, 100 kPa, x1 = 0.000744	–	0.82
303.15 K, 100 kPa, x1 = 0.0009399	–	0.825
303.15 K, 100 kPa, x1 = 0.001103	–	0.829
303.15 K, 100 kPa, x1 = 0.001379	–	0.836
303.15 K, 100 kPa, x1 = 0.001677	–	0.847
308.15 K, 100 kPa, x1 = 8.613e-05	–	0.723
308.15 K, 100 kPa, x1 = 0.0001839	–	0.726
308.15 K, 100 kPa, x1 = 0.0003576	–	0.73
308.15 K, 100 kPa, x1 = 0.0005405	–	0.734
308.15 K, 100 kPa, x1 = 0.000744	–	0.739
308.15 K, 100 kPa, x1 = 0.0009399	–	0.743
308.15 K, 100 kPa, x1 = 0.001103	–	0.747
308.15 K, 100 kPa, x1 = 0.001379	–	0.753
308.15 K, 100 kPa, x1 = 0.001677	–	0.762
313.15 K, 100 kPa, x1 = 8.613e-05	–	0.656
313.15 K, 100 kPa, x1 = 0.0001839	–	0.659
313.15 K, 100 kPa, x1 = 0.0003576	–	0.662
313.15 K, 100 kPa, x1 = 0.0005405	–	0.666
313.15 K, 100 kPa, x1 = 0.000744	–	0.67
313.15 K, 100 kPa, x1 = 0.0009399	–	0.673
313.15 K, 100 kPa, x1 = 0.001103	–	0.677
313.15 K, 100 kPa, x1 = 0.001379	–	0.683
313.15 K, 100 kPa, x1 = 0.001677	–	0.691

Source: the CheMixHub ionic liquid set
